Experimental data as given in patent US20200038399A1, “FORMULATIONS, METHODS, KIT, AND DOSAGE FORMS FOR TREATING BACTERIAL INFECTION” (Motif BioSciences Inc., priority 2016, published 2020).

Assays:
S. aureus 101 [1] = experiment: checkerboard synergy assay with iclaprim; assay type: cell-based, Staphylococcus aureus; details: antibiotic in combination with iclaprim
Method: (§1) The synergistic potential of iclaprim against Gram-positive and Gram-negative bacteria was determined using the checkerboard assay as described in Eliopoulos GM and Moellering, Jr. RC (1991), Antimicrobial combinations, pp. 432-492, in V. Lorian (ed.), Antibiotics in laboratory medicine, 3rd Ed., The Williams & Wilkins Co., Baltimore, the entire disclosure of which is herein incorporated by reference, allowing multiple test concentrations of iclaprim to be assayed in the presence of various concentrations of the other antibiotic in microtiter plates. The same growth media and conditions were used as described in 3.2 below.
(§2) Two different dilutions were used for iclaprim depending on the MIC determined for the bacterium. […] Iclaprim and the other antibiotic being tested were also dispensed alone in the last row and in the last column, respectively, as controls.
(§3) The Fractional Inhibitory Concentrations (FIC) for each added agent were calculated and used to determine the sum of FIC (ΣFIC) indicative of the synergistic potential of a given combination as described in Veyssier P. (1999), Inhibiteurs de la dihydrofolate reductase, nitrohétérocycles (furanes) et 8-hydroxyquinoleines, pp. 995-1027, in A. Bryskier (ed.), Antibiotiques agents antibatériens et antifongiques, 1st Ed., Ellipses Edition Marketing SA, Paris, the entire disclosure of which is herein incorporated by reference. Synergy was defined whereby the ΣFIC was <0.5, indifference (no synergy nor antagonism) whereby ΣFIC was ≥0.5 but ≤4, and antagonism whereby ΣFIC was >4. Additivity as a special form of indifference was defined whereby the ΣFIC was ≥0.5 but <1, for example as described in Stevens, D L et al. (1998), In vitro antimicrobial effects of various combinations of penicillin and clindamycin against four strains of Streptococcus pyogenes, J. Antimicrob. Chemother. 42: 1266-1268, the entire disclosure of which is herein incorporated by reference.

[2] = tested on: Streptococcus pneumoniae ATCC 49619; experiment: checkerboard synergy assay with iclaprim; assay type: cell-based; details: antibiotic in combination with iclaprim; S. pneumoniae 49619
Method: as §1, §2, §3

[3] = tested on: Moraxella catarrhalis RA 21; experiment: checkerboard synergy assay with iclaprim; assay type: cell-based; details: antibiotic in combination with iclaprim; M. catarrhalis RA 21
Method: as §1, §2, §3

[4] = tested on: Haemophilus influenzae ATCC 49766; experiment: checkerboard synergy assay with iclaprim; assay type: cell-based; details: antibiotic in combination with iclaprim; H. influenzae 49766
Method: as §1, §2, §3

[5] = tested on: Staphylococcus aureus ATCC 25923; experiment: checkerboard synergy assay with iclaprim; assay type: cell-based; details: antibiotic in combination with iclaprim; S. aureus 25923
Method: as §1, §2, §3

[6] = tested on: Klebsiella pneumoniae ATCC 33495; experiment: checkerboard synergy assay with iclaprim; assay type: cell-based; details: antibiotic in combination with iclaprim; K. pneumoniae 33495
Method: as §1, §2, §3

S. pneumoniae 1/1 [7] = experiment: checkerboard synergy assay with iclaprim; assay type: cell-based, Streptococcus pneumoniae; details: antibiotic in combination with iclaprim
Method: as §1, §2, §3

[8] = tested on: Streptococcus pneumoniae ATCC 49619; experiment: MIC determination; assay type: cell-based; details: Streptococcus pneumoniae, ATCC49619; S. pneumoniae 49619; 18 hours at 37° C., 5% CO2; read-out: Minimum inhibitory concentrations (MIC)
Method: (§4) Minimum inhibitory concentration (MIC) determination.
(§5) In order to choose the appropriate concentrations to be tested in the checkerboard experiments, minimum inhibitory concentrations (MICs) were determined first. […] Table 6) in microtiter plates. Stock solutions (10 mg/ml) of reference antibiotics were prepared in DMSO (except for tobramycin, gentamicin, lomefloxacin, tetracycline) and stored at 4° C. The bacteria were grown in Mueller-Hinton Broth (BBL Mueller-Hinton Broth II, cation adjusted). S. pneumoniae was grown in Mueller-Hinton Broth supplemented with 5% (v/v) lysed sheep blood. For the growth of H. influenzae HTM (Haemophilus test medium) was used containing Mueller-Hinton broth, yeast extract ([…], Difco) and supplemented with NAD and hematin (HTM Supplement, Oxoid SR0158E). M. catarrhalis was grown in Brain Heart Infusion medium (Oxoid). The bacteria were incubated for 18 hours at 37° C. in ambient air except for S. pneumoniae, H. influenzae and M. catarrhalis, which were incubated in the presence of 5% CO2. The MIC was determined as the lowest concentration of an individual drug that lead to no visible growth.

[9] = tested on: Moraxella catarrhalis RA 21; experiment: MIC determination; assay type: cell-based; details: Moraxella catarrhalis, RA21; M. catarrhalis RA 21; 18 hours at 37° C., 5% CO2; read-out: Minimum inhibitory concentrations (MIC)
Method: as §4, §5

[10] = tested on: Haemophilus influenzae ATCC 49766; experiment: MIC determination; assay type: cell-based; details: Haemophilus influenzae, ATCC49766; H. Influenza 49766; 18 hours at 37° C., 5% CO2; read-out: Minimum inhibitory concentrations (MIC)
Method: as §4, §5

[11] = tested on: Staphylococcus aureus ATCC 25923; experiment: MIC determination; assay type: cell-based; details: Staphylococcus aureus, ATCC25923; S. aureus 25923; 18 hours at 37° C.; read-out: Minimum inhibitory concentrations (MIC)
Method: as §4, §5

[12] = tested on: Klebsiella pneumoniae ATCC 33495; experiment: MIC determination; assay type: cell-based; details: Klebsiella pneumoniae, ATCC33495; K. pneumonia 33495; 18 hours at 37° C.; read-out: Minimum inhibitory concentrations (MIC)
Method: as §4, §5

S. pneumoniae 1/1 [13] = experiment: MIC determination; assay type: cell-based, Streptococcus pneumoniae; details: Streptococcus pneumoniae; S. pneumoniae 1/1; 18 hours at 37° C., 5% CO2; read-out: Minimum inhibitory concentrations (MIC)
Method: as §4, §5

S. aureus 101 [14] = experiment: MIC determination; assay type: cell-based, Staphylococcus aureus; details: Staphylococcus aureus, 101, 18 h; read-out: Minimum inhibitory concentrations (MIC)
Method: as §4, §5

| Compound | Σ FIC (S. aureus 101 [1]) | Σ FIC [2] | Con (Conclusion) [3] | Σ FIC [3] | Con (Conclusion) [4] | Σ FIC [4] | Σ FIC [5] | Con (Conclusion) [6] | Σ FIC [6] | Σ FIC (S. pneumoniae 1/1 [7]) | MIC [8] [µg/mL] | MIC [9] [µg/mL] | MIC [10] [µg/mL] | MIC [11] [µg/mL] | MIC [12] [µg/mL] | MIC (S. pneumoniae 1/1 [13]) [µg/mL] | MIC (S. aureus 101 [14]) [µg/mL] |
| --- | --- | --- | --- | --- | --- | --- | --- | --- | --- | --- | --- | --- | --- | --- | --- | --- | --- |
| NC(=O)c1cc[n+](CC2=C(C(=O)O)N3C(=O)[C@@H](NC(=O)[C@@H](c4ccccc4)S(=O)(=O)[O-])[C@H]3SC2)cc1 [Cefsulodine, Cefsulodin] | 1.00-1.25 | 1.13-1.50 | Ind (Indifference (Ind)) | 1.00-1.25 | Ind (Indifference (Ind)) | 1.01-1.50 | 1.00-1.25 | Ind (Indifference (Ind)) | 1.01-1.50 | 1.01-1.50 | 16 | > 128 | > 128 | 64 | > 128 | > 128 | 64 |
| CCC[C@@H]1C[C@@H](C(=O)N[C@@H]([C@H]2O[C@H](SC)[C@H](O)[C@@H](O)[C@H]2O)[C@H](C)Cl)N(C)C1 [Clindamycin] | 2.03-2.50 | 1.00-1.25 | Ind (Indifference (Ind)) | 1.00-1.25 | Ind (Indifference (Ind)) | 1.13-1.50 | 2.02-2.48 | Ind (Indifference (Ind)) | 1.01-1.50 | 0.63-1.06 | 0.125 | 4 | 8 | 0.25 | > 128 | 0.125 | 0.25 |
| Cc1onc(-c2ccccc2Cl)c1C(=O)N[C@@H]1C(=O)N2[C@@H]1SC(C)(C)[C@@H]2C(=O)O [Cloxacillin] | 1.00-1.25 | 1.00-1.25 | Ad (Additivity (Ad)) | 0.53-1.00 | Ind (Indifference (Ind)) | 1.13-1.50 | 0.99-1.25 | Ind (Indifference (Ind)) | 1.01-2.50 | 1.00-1.25 | 8 | 64 | 16 | 0.25 | > 128 | 64 | 2 |
| C[C@H]1c2cccc(O)c2C(=O)C2=C(O)[C@]3(O)C(=O)C(C(N)=O)=C(O)[C@@H](N(C)C)[C@@H]3[C@@H](O)[C@@H]21 [Doxycycline] | 1.06-1.50 | 1.02-1.51 | Ind (Indifference (Ind)) | 1.02-1.50 | Ind (Indifference (Ind)) | 1.00-1.00 | 1.02-1.50 | Ind (Indifference (Ind)) | 1.01-1.50 | 1.25-1.50 | 0.5 | 0.5 | 0.5 | 0.5 | > 128 | 2 | 16 |
| CC[C@H]1OC(=O)[C@H](C)[C@@H](O[C@H]2C[C@@](C)(OC)[C@@H](O)[C@H](C)O2)[C@H](C)[C@@H](O[C@@H]2O[C@H](C)C[C@H](N(C)C)[C@H]2O)[C@](C)(O)C[C@@H](C)C(=O)[C@H](C)[C@@H](O)[C@]1(C)O [Erythromycin] | 1.01-1.50 | 1.06-1.50 | Ind (Indifference (Ind)) | 1.06-1.50 | Ad (Additivity (Ad)) | 0.75-1.00 | 1.13-1.50 | Ad (Additivity (Ad)) |  | 1.06-1.50 | 0.125 | 0.125 | 8 | 0.5 | 128 | 0.125 | > 128 |
| C[C@@H]1O[C@@H]1P(=O)(O)O [Fosfomycin] | 1.03-1.50 | 1.06-1.50 | Ind (Indifference (Ind)) | 1.02-1.50 | Ad (Additivity (Ad)) | 0.74-1.12 | 1.13-1.50 | Ind (Indifference (Ind)) | 1.01-1.50 | 1.00-1.06 | 32 | 128 | 0.062 | 8 | > 128 | 32 | 64 |
| CC(=O)O[C@H]1C[C@@]2(C)[C@@H](C[C@@H](O)[C@H]3[C@@]4(C)CC[C@@H](O)[C@@H](C)[C@@H]4CC[C@@]32C)/C1=C(\CCC=C(C)C)C(=O)O [Fusidic acid] | 1.06-1.50 | 1.13-1.50 | Ind (Indifference (Ind)) | 1.00-1.00 | Ind (Indifference (Ind)) | 1.06-1.50 | 2.03-2.50 | Ind (Indifference (Ind)) | 1.00-1.25 | 1.06-1.50 | 4 | < 0.008 | 1 | 0.25 | > 128 | 8 | 0.125 |
| NC[C@H]1O[C@H](O[C@H]2[C@H](O)[C@@H](O[C@H]3O[C@H](CO)[C@@H](O)[C@H](N)[C@H]3O)[C@H](N)C[C@@H]2N)[C@H](O)[C@@H](O)[C@@H]1O [Kanamycin] | 1.01-1.50 | 1.00-1.25 | Ind (Indifference (Ind)) | 1.00-1.25 | Ind (Indifference (Ind)) | 1.02-1.13 | 1.06-1.50 | Ad (Additivity (Ad)) | 0.63-0.75 | 1.02-1.50 | 32 | 4 | 2 | 2 | 4 | 128 | > 128 |
| CCn1cc(C(=O)O)c(=O)c2cc(F)c(N3CCNC(C)C3)c(F)c21 (centres unmarked) [Lomefloxacin] | 1.02-1.50 | 0.75-1.13 | Ad (Additivity (Ad)) | 0.63-1.13 | Ind (Indifference (Ind)) | 1.06-1.50 | 1.06-1.50 | Ind (Indifference (Ind)) | 1.13-1.50 | 0.75-1.13 | 8 | 0.5 | 0.125 | 1 | 4 | 8 | 128 |
